Point of comparison: `CNc1ccc(C2CC(=O)N(C)C2C(O)c2ccc(-c3ccccc3)s2)cc1` (stereo not given), melting point 212 °C. Against it:
- NS(=O)(=O)c1ccc(-n2nc(CCCNC(=O)NC34CC5CC(CC(C5)C3)C4)cc2-c2ccccc2)cc1 — lower, 139 to 144 °C
- COC(=O)c1ccc(C#CC2(O)CN3CCC2CC3)nc1 (stereo not given) — lower, 180 to 182 °C
- CCOC(=O)Nc1ccccc1C(=O)OCC — lower, < 40 °C
- COc1ncccc1-c1ccc(OC2SCC(O)C(O)C2O)c(Cl)n1 (stereo not given) — lower, 102 °C
- COC(=O)C1=C(Cl)/C(=N/OS(C)(=O)=O)CC(c2ccc(Cl)c(OC)c2F)N1 (stereo not given) — lower, 64 to 66 °C
- CCOCc1nc2ncc(C)nc2c(=O)[nH]1 — lower, 181 to 183 °C
- Cc1cc(O)cc(C)c1N=Cc1ccccc1O — lower, 145 to 147 °C
- CC(=O)Oc1ccc2scc(C(=O)O)c2c1 — higher, 239 to 240 °C
- CC1CCN(CCOc2ccc(NC(=O)CC(=O)c3ccc(-c4ccccc4)cc3)cc2Cl)CC1 — lower, 135 to 139 °C
- COc1ccc(CNc2nc(Cl)ncc2C(=O)c2cc(OC)c(OC)c(OC)c2)cc1Cl — lower, 165 °C
- O=C(O)c1cccc(CS(=O)(=O)CCO)c1 — lower, 67 to 70 °C
- COc1cc(/C=C/C(=O)c2ccc(C(=O)O)cc2)cc(-c2cccs2)c1OC — higher, 231 °C
- Fc1cccc(F)c1-c1nccc(-c2ccc(-c3ccc(C(F)(F)F)cc3)cc2)n1 — lower, 141 to 142 °C
- CCCOc1ccccc1-c1nc2ncncc2c(=O)n1N — higher, 261 to 262 °C
- COc1ccc(-c2coc3cc(OCC(O)CN4CCNCC4)ccc3c2=O)cc1OC (stereo not given) — lower, 84 to 85 °C
- CN(C)CCc1[nH]c2ccccc2c1CC(C#N)(c1ccccc1)c1ccccc1 — lower, 181 to 185 °C
- CC1CC(N)(C(=O)O)c2cc(F)ccc2O1 (mixture of isomers) — lower, 153 to 156 °C
- CCCc1nnc(-c2ccc([N+](=O)[O-])cc2)n1-c1ccc(OC)cc1 — lower, 140 °C
- COc1cc(C(=CN(C)C)C(C)=O)ccc1OCC(O)CN1CCN(c2ccccc2C)CC1 (stereo not given) — lower, 95 °C
- COc1ccc(S(=O)(=O)n2ccc3ccnc(-c4ccc(Cl)cc4)c32)cc1 — lower, 126 to 128 °C
- CS(=O)(=O)c1ccc(-c2oc3ccccc3c(=S)c2-c2ccc(F)cc2)cc1 — lower, 203 to 205 °C
- COC(=O)/C=C/c1ccc(-c2ccc(C(C)C)cc2)s1 — lower, 117 to 119 °C
- COc1ccc(CCNC(=O)C(=O)Nc2ccncc2)cc1OC1CCCC1 — lower, 182 °C
- COc1cc2c(cc1OCc1ccccc1)CCCC(C(=O)O)=C2 — lower, 163 to 165 °C
- COc1ccc(-c2cc(C(Nn3cnnc3)c3ccccc3OS(N)(=O)=O)ccc2C#N)cc1 (stereo not given) — lower, 184 to 186 °C
- CCCN(CCC)CCc1ccc(OC)c2[nH]c(=O)[nH]c12 — lower, 35 °C
- CCONC(CC)=C1C(=O)CC(CCSc2ccc(Cl)cc2)CC1=O (stereo not given) — lower, 42 to 43 °C
- NCC1CCc2[nH]c3ccc(OC(F)(F)F)cc3c2C1 (stereo not given) — lower, 148 to 150 °C
- O=C(C=Cc1ccccn1)N1CCc2c([nH]c3ccccc23)C1c1ccc2c(c1)OCO2 (stereo not given) — lower, 135 to 141 °C
- Cc1cc(NC(=O)C(C)(O)COc2cc(F)cc(F)c2)ccc1[N+](=O)[O-] (stereo not given) — lower, 104 to 106 °C
- CC(=O)NCc1ccc(Oc2ccccc2C(=O)CN2CCN(c3ccncc3)CC2)cc1 — lower, 150 to 151 °C
- Cc1cc(Cl)cc(C)c1NC(=O)Oc1ccccc1 — lower, 158 to 160 °C
- CCS(=O)c1ccc(-c2coc3ccc(-c4nnc(C)o4)cc23)c(Cl)c1 (stereo not given) — lower, 151 to 152 °C
- O=C(CCl)c1ccc(-c2ccc(S(=O)(=O)C(F)F)cc2)cc1 — lower, 157 to 159 °C
- CCn1ncc(C(=O)c2ccc(Cl)cc2Cl)c1O — lower, 144 to 146 °C
- COc1ccc2ccc(N3C(=O)c4ccccc4C3OCc3cccnc3)nc2n1 (stereo not given) — lower, 175 °C
- O=C(O)c1ccc(CN2C(=O)C3(COc4cc5c(cc43)OCCO5)c3ccccc32)o1 (stereo not given) — lower, 192 to 195 °C
- N#Cc1ccc(-c2nc(Cl)c3c(n2)CCCC3)cc1 — lower, 190 °C
- CCOc1csc2c(=O)c(C(N)=O)cn(C)c12 — higher, 286 to 287 °C
- O=C(C(Cl)Cl)N1CCCCCCC1 — lower, 83 °C
- Nc1nccnc1C(=O)NCCc1ncc[nH]1 — lower, 204 to 208 °C
- Cc1ccc(S(=O)(=O)N(C)c2cc(C(C)(C)C)c(O)c(C(C)(C)C)c2)cc1 — lower, 130 to 142 °C
- CC(=O)NC[C@H]1CN(c2ccc(N3CCC(n4ncnn4)CC3)c(F)c2)C(=O)O1 — lower, 186 to 188 °C
- COc1cc2c(cc1OC)[C@@H](c1ccc([N+](=O)[O-])cc1)NN(C1=NCCS1)[C@@H](C)C2 — not separable, 206 to 212 °C
- Nc1nc(N)nc(N2CCOCC2)n1 — higher, 248 to 250 °C
- COc1ccc(CNc2nc(NCc3ccc(OC)cc3)c3[nH]nc(C(C)C)c3n2)cc1 — lower, 60 to 85 °C
- CCSN(C)C(=O)Nc1ccc(C)c(Cl)c1 — lower, < 50 °C
- CCc1nc2c(N)nc3ccccc3c2n1CCCCSC — lower, 183 to 186 °C
- CC(C)=CCCOc1c(-c2ccc(S(C)(=O)=O)cc2)cnn(-c2ccc(F)cc2)c1=O — lower, 111 to 114 °C
- N#Cc1cn(C[C@@H]2CN(c3ccc(N4CCC5(CC4)OCCO5)c(F)c3)C(=O)O2)nn1 — lower, 158 to 160 °C
- COc1cc(CON=C(CCC(=O)O)c2ccccc2)ccc1OCc1nc(-c2ccco2)oc1C — lower, 131 to 132 °C
- COc1cc2oc(=O)c(CCO)c(C)c2c(OC)c1OC — lower, 95 to 97 °C
- Cc1cc(Br)c2c(c1)C=C(C(=O)O)C(C(F)(F)F)O2 (stereo not given) — higher, 237 to 238 °C
- COc1ccc(N2C(=O)C(N3C(=O)c4ccccc4C3=O)C2C(C)=Cc2ccccc2)cc1 (stereo not given) — lower, 105 to 107 °C
- O=C(COc1ccccc1)N[C@@H](Cc1ccc([N+](=O)[O-])cc1)C(=O)O — lower, 147 °C
- O=P(O)(O)Cc1ccccc1CP(=O)(O)O — higher, > 300 °C
- O=C(O)COc1cc2cc(CO)sc2c(Cl)c1Cl — lower, 188 °C
- Cc1cncc(CC(=O)c2ccccc2)c1 — lower, 53 to 54 °C
- NC(=O)c1nc(-c2cccnc2O)nc2c1[nH]c(=O)n2-c1ccccc1C(F)(F)F — higher, 331 to 335 °C
- Cc1cc(NC(=O)NNc2cccc(C#N)c2)ccc1N1CCCCC1=O — lower, 206 to 207 °C
- CSCC(=O)[C@H](COCc1ccccc1)NC(=O)[C@H](CC(C)C)NC(=O)OCc1ccccc1 — lower, 58 to 70 °C
- CC1CC2=C(N3CN(C)N=C3C(c3ccccc3Cl)=NC2)S1=O (stereo not given) — lower, 199 to 200 °C
- CC(C)n1c(N2CCN(C)CC2)nc2cc(Cl)c(N)cc21 — lower, 192 to 193 °C
- COc1cc2c(cc1OC)NC(=O)N(CCCN(C)CCCSc1ccccc1)CC2 — lower, 107 to 110 °C
- COc1ccc(-c2nc(-c3ccccc3)ccc2C(=O)O)cc1OC — lower, 178 °C
- CCCCCCCCc1ccc(OCC(=O)Cn2ccc3ccccc32)cc1 — lower, 65 °C
- Cn1cncc1C(O)(c1ccc2ncccc2c1)c1ccc2nc(Cl)nc(-c3cccc(Cl)c3)c2c1 (stereo not given) — higher, 250 °C
- CCOC(=O)C(=CNc1ccc(F)c(N2CCN(C(C)=O)CC2)n1)C(=O)OCC — lower, 164 to 165 °C
- CCCCCCCCCCCC(=O)c1c[nH]c(C(=O)OC)c1 — lower, 102 to 103 °C
- CC(C)S(=O)(=O)c1ccc(Oc2ccc([N+](=O)[O-])c(NCCC#N)c2)c(Cl)c1 — lower, 140 °C
- O=C(O)CN1C(=O)C(=CCCCCl)SC1=S — lower, 155 to 157 °C
- O=C(Nc1nnn(CC(F)(F)F)n1)C1c2ccccc2Oc2ccccc21 — lower, 209 to 210 °C
- Cn1cc2c(n1)Nc1ccc(Cl)cc1NC2=S — higher, > 260 °C
- Cc1cccc(C)c1N1CCN(CCNc2c(Cl)cnn(C)c2=O)CC1 — higher, 225 to 232 °C
- O=C1Nc2ccc(I)cc2C1=NNC(=O)c1ccc(Oc2ccccc2)cc1 — higher, 296 °C
- Cc1ccc(S(=O)(=O)OCC2COc3ccc4ccccc4c3O2)cc1 (stereo not given) — lower, 122 to 124 °C
- CCC(=O)c1cc([C@]2(c3cccc(-c4cccnc4F)c3)N=C(N)N(C)C2=O)cn1CC — lower, 94 to 97 °C
- O=C1Cc2ccccc2N1CCCl — lower, 74 °C
- COc1ccc(-c2cc(=O)c3c(O)cc(O)cc3o2)cc1OCC(O)CO (stereo not given) — higher, 215 to 218 °C
- Cc1cc(-c2ccc(Cl)cc2)nc2c(I)cnn12 — lower, 147 to 148 °C
- COC(=O)C(=O)c1cc2ccccc2n1S(=O)(=O)c1ccccc1 — lower, 111 to 112 °C
- O=C1c2c(Cl)cccc2-n2cnc(-c3noc(CN(C4CCCCC4)C4CCCCC4)n3)c2[C@@H]2CCN12 — lower, 155 to 185 °C
- CC(C)(C)OC(=O)CCc1nc(C(=O)OC(C)(C)C)ccc1O — lower, 172 to 174 °C
- O=CNC1CCc2ccccc2N(C=O)C1 (stereo not given) — lower, 130 °C
- O=C(NC1CCCCC1)NC1CCCc2sccc21 (stereo not given) — higher, 222 to 225 °C
- COC(=O)c1cc(-c2ccc(SC)cc2)nn(CC=Cc2ccc(Cl)cc2)c1=O — lower, 123 to 126 °C
- COC(=O)c1cccc(-c2cccnc2)c1 — lower, 125 to 126 °C
- COc1nc(C)nc(N2CCc3ccccc3CC2)c1[N+](=O)[O-] — lower, 123 to 128 °C
- CCOC(=O)Cc1ccc(NC(=O)C(COc2ccc(Cl)cc2)NS(=O)(=O)c2ccc(I)cc2)cc1 (racemic) — lower, 162 to 163 °C
- CC(CCCC(C)(C)O)C1CCC2C3CC=C4CC(O)CC(O)C4(C)C3CCC12C (stereo not given) — lower, 170 to 172 °C
- Cc1ccc(NC(=O)c2c(C)cccc2N)cc1 — higher, 217 to 220 °C
- CCOC(=O)Cc1sc(Sc2nccc(C)c2C(=O)O)nc1C — lower, 169 to 171 °C
- O=S1(=O)c2cccc3cccc(c23)N1CCCN1CC=C(c2c[nH]c3ccc(O)cc23)CC1 — higher, 214 °C
- CC(C)n1c(CCC2C[C@@H](O)CC(=O)O2)c(-c2ccc(F)cc2)c(-c2ccccc2)c1C(=O)Nc1ccccc1 (stereo not given in full) — lower, 128 to 129 °C
- CCOC(=O)C1=Nc2cc3c(c(C)c2=C1C)N=c1ccc(C#N)cc1=3 — higher, > 240 °C
- CCOCCN(CC1=CCC(N)(Oc2ccccc2)C=C1)C(=O)C(Cl)Cl (stereo not given) — lower, 96 to 98 °C
- COC=C(C(=O)OC)c1ccccc1CCc1ccccc1 — lower, 52 to 54 °C
- O=C(c1cc(=O)c2cc(O)ccc2[nH]1)N1CCC(COc2ccccc2)CC1 — lower, 130 °C
- O=C1Nc2cc3c(cc2O[C@H]1CCCO)CCCC3 — lower, 139 to 140 °C

Reference: a melting point compilation (Tetko et al.; mined from patent text by program, amines drawn as free bases though some values may be those of a salt)
